# Laboratory results published in patent US20020026053A1, “Novel 3-(substituted) -2- indolinones compounds and use thereof as inhibitors of protein kinase activity” (priority 1997, published 2002).
# Where “and” joins values, the source holds several entries; their conditions need not be identical. Equal entries are not always repeated.
# How the values were obtained:
# FLK-1 receptor = assay: FLK-1 Assay (cellular/catalytic ELISA, VEGF-stimulated phosphotyrosine); assay type: cell-based; parameters: concentration or dose not given beside the values; conditions: protocol P.110
# Protocol: (§1) The cellular/catalytic assays described herein are performed in an ELISA format. The general procedure is as follows: a compound is introduced to cells expressing the test kinase, either naturally or recombinantly, for a selected period of time after which, if the test kinase is a receptor, a ligand known to activate the receptor is added. The cells are lysed and the lysate is transferred to the wells of an ELISA plate previously coated with a specific antibody recognizing the substrate of the enzymatic phosphorylation reaction. Non-substrate components of the cell lysate are washed away and the amount of phosphorylation on the substrate is detected with an antibody specifically recognizing phosphotyrosine compared with control cells that were not contacted with a test compound.
# An ELISA assay is conducted to measure the kinase activity of the FLK-1 receptor and more specifically, the inhibition or activation of TK activity on the FLK-1 receptor. Specifically, the following assay can be conducted to measure kinase activity of the FLK-1 receptor in cells genetically engineered to express Flk-1.
# a. Corning 96-well ELISA plates (Corning Catalog No. 25805-96);
# b. Cappel goat anti-rabbit IgG (catalog no. 55641);
# c. PBS (Gibco Catalog No. 450-1300EB);
# d. TBSW Buffer (50 mM Tris (pH 7.2), 150 mM NaCl and 0.1% Tween-20);
# e. Ethanolamine stock (10% ethanolamine (pH 7.0), stored at 4° C.);
# f. HNTG buffer (20 mM HEPES buffer (pH 7.5), 150 mM NaCl, 0.2% Triton X-100, and 10% glycerol);
# g. EDTA (0.5 M (pH 7.0) as a 100× stock);
# h. Sodium orthovanadate (0.5 M as a 100× stock);
# i. Sodium pyrophosphate (0.2 M as a 100× stock);
# j. NUNC 96 well V bottom polypropylene plates (Applied Scientific Catalog No. AS-72092);
# k. NIH3T3 C7#3 Cells (FLK-1 expressing cells);
# l. DMEM with 1× high glucose L-Glutamine (catalog No. 11965-050);
# n. L-glutamine, Gibco (catalog no. 25030-016);
# o. VEGF, PeproTech, Inc. (catalog no. 100-20)(kept as 1 μg/100 μl stock in Milli-Q dH2O and stored at −20° C.;
# p. Affinity purified anti-FLK-1 antiserum;
# q. UB40 monoclonal antibody specific for phosphotyrosine (see, Fendley, et al., 1990, Cancer Research 50:1550-1558);
# r. EIA grade Goat anti-mouse IgG-POD (BioRad catalog no. 172-1011);
# s. 2,2-azino-bis(3-ethylbenz-thiazoline-6-sulfonic acid (ABTS) solution (100 mM citric acid (anhydrous), 250 mM Na2HPO4 (pH 4.0), 0.5 mg/ml ABTS (Sigma catalog no. A-1888)), solution should be stored in dark at 4° C. until ready for use;
# t. H2O2 (30% solution) (Fisher catalog no. H325);
# u. ABTS/ H2O2 (15 ml ABTS solution, 2 μl H2O2) prepared 5 minutes before use and left at room temperature;
# v. 0.2 M HCl stock in H2O;
# w. dimethylsulfoxide (100%) (Sigma Catalog No. D-8418); and
# y. Trypsin-EDTA (Gibco BRL Catalog No. 25200-049).
# 1. Coat Corning 96-well ELISA plates with 1.0 μg per well Cappel Anti-rabbit IgG antibody in 0.1M Na2CO3 pH 9.6. Bring final volume to 150 μl per well. Coat plates overnight at 4° C. Plates can be kept up to two weeks when stored at 4° C.
# 2. Grow cells in Growth media (DMEM, supplemented with 2.0 mM L-Glutamine, 10% FBS) in suitable culture dishes until confluent at 37° C., 5% CO2.
# 3. Harvest cells by trypsinization and seed in Corning 25850 polystyrene 96-well round bottom cell plates, 25,000 cells/well in 200 μl of growth media.
# 4. Grow cells at least one day at 37° C., 5% CO2.
# 5. Wash cells with D-PBS 1×.
# 6. Add 200 μl/well of starvation media (DMEM, 2.0 mM 1-Glutamine, 0.1% FBS). Incubate overnight at 37° C., 5% CO2.
# 7. Dilute Compounds 1:20 in polypropylene 96 well plates using starvation media. Dilute dimethylsulfoxide 1:20 for use in control wells.
# 8. Remove starvation media from 96 well cell culture plates and add 162 μl of fresh starvation media to each well.
# 9. Add 18 μl of 1:20 diluted compound dilution (from step 7) to each well plus the 1:20 dimethylsulfoxide dilution to the control wells (+/− VEGF), for a final dilution of 1:200 after cell stimulation. Final dimethylsulfoxide is 0.5%. Incubate the plate at 37° C., 5% CO2 for two hours.
# 10. […]
# PDGF-R = PDGF-R Assay (cellular ELISA, U1242 cells); assay type: cell-based; parameters: concentration or dose not given beside the values; conditions: protocol P.119
# Protocol: as §1
# All cell culture media, glutamine, and fetal bovine serum can be purchased from Gibco Life Technologies (Grand Island, N.Y.) unless otherwise specified. All cells are grown in a humid atmosphere of 90-95% air and 5-10% CO2 at 37° C. All cell lines are routinely subcultured twice a week and are negative for mycoplasma as determined by the Mycotect method (Gibco).
# For ELISA assays, cells (U1242, obtained from Joseph Schlessinger, NYU) are grown to 80-90% confluency in growth medium (MEM with 10% FBS, NEAA, 1 mM NaPyr and 2 mM GLN) and seeded in 96-well tissue culture plates in 0.5% serum at 25,000 to 30,000 cells per well. After overnight incubation in 0.5% serum-containing medium, cells are changed to serum-free medium and treated with test compound for 2 hr in a 5% CO2, 37° C. incubator. Cells are then stimulated with ligand for 5-10 minute followed by lysis with HNTG (20 mM Hepes, 150 mM NaCl, 10% glycerol, 5 mM EDTA, 5 mM Na3VO4, 0.2% Triton X-100, and 2 mM NaPyr). Cell lysates (0.5 mg/well in PBS) are transferred to ELISA plates previously coated with receptor-specific antibody and which had been blocked with 5% milk in TBST (50 mM Tris-HCl pH 7.2, 150 mM NaCl and 0.1% Triton X-100) at room temperature for 30 min. Lysates are incubated with shaking for 1 hour at room temperature. The plates are washed with TBST four times and then incubated with polyclonal anti-phosphotyrosine antibody at room temperature for 30 minutes. Excess anti-phosphotyrosine antibody is removed by rinsing the plate with TBST four times. Goat anti-rabbit IgG antibody is added to the ELISA plate for 30 min at room temperature followed by rinsing with TBST four more times. ABTS (100 mM citric acid, 250 mM Na2HPO4 and 0.5 mg/mL 2,2′-azino-bis (3-ethylbenzthiazoline-6-sulfonic acid)) plus H2O2 ([…] 30% H2O2 to 10 ml ABTS) is added to the ELISA plates to start color development. Absorbance at 410 nm with a reference wavelength of 630 nm is recorded about 15 to 30 min after ABTS addition.
smiles,measurement,setting,value
Cc1c(Br)cc(Br)c2c1C(=CC1COc3ccccc3O1)C(=O)N2 (racemic) [10739/H05],Flk Kinase % Inhibition (P.110),FLK-1 receptor,5.3% and 10.0%
same,PDGF Kinase % Inhibition (P.119),PDGF-R,−5.0% and −6.4%
